Measurements taken from PubChem BioAssay (NCI).
“And” between values parts separate entries of the source, which are not always exact repeats. Identical values can stand only once.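 Method: 48-hour compound exposure of cells in 96-well plates, five concentrations, linear interpolation of endpoints. At the GI50, growth is halved. The concentration for full growth arrest is given as TGI.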

What was measured:
Assay in all cases: inhibition of tumour cell growth, NCI panel, 48 h
LXFL 529 NSCLC = test system: LXFL 529 NSCLC
SNB-78 CNS = test system: SNB-78 CNS
DLD-1 colon = test system: DLD-1 colon
M19-MEL melanoma = test system: M19-MEL melanoma
XF 498 CNS = test system: XF 498 CNS
HOP-18 NSCLC = test system: HOP-18 NSCLC
DMS 114 small cell lung = test system: DMS 114 small cell lung
RXF-631 renal = test system: RXF-631 renal
MDA-N = test system: MDA-N

Row | SMILES | GI50 (LXFL 529 NSCLC) [µM] | TGI (LXFL 529 NSCLC) [µM] | GI50 (SNB-78 CNS) [µM] | TGI (SNB-78 CNS) [µM] | GI50 (DLD-1 colon) [µM] | TGI (DLD-1 colon) [µM] | TGI (M19-MEL melanoma) [µM] | GI50 (XF 498 CNS) [µM] | TGI (XF 498 CNS) [µM] | GI50 (HOP-18 NSCLC) [µM] | TGI (HOP-18 NSCLC) [µM] | TGI (DMS 114 small cell lung) [µM] | TGI (RXF-631 renal) [µM] | GI50 (MDA-N) | TGI (MDA-N) [µM]
1 | CCC[CH2][Sn]([Cl])([Cl])[CH2]CCC | 0.138 | 0.474 | 0.333 | 1.43 | 0.649 | 1.99 | 2.21 | 0.534 | 1.44 | 1.29 | 2.56 | – | – | – | –
2 | COc1ccc(N=NC(C(=O)c2ccccc2)C(=O)c2ccccc2)cc1 | – | > 100 | – | – | – | 96.6 | – | – | 71.9 | – | – | 54.6 | > 100 | – | –
3 | CCOC(=O)C(=O)Nc1ccccc1C | – | > 100 | – | > 100 | – | > 100 | > 100 | – | 87.9 | – | – | > 100 | > 100 | – | –
4 | CC[n+]1oc(C(=O)c2ccc(Cl)cc2)c(-c2ccccc2)c1-c1ccccc1.[Cl][Fe]([Cl])([Cl])[Cl] | – | – | – | – | – | – | – | – | – | – | – | – | – | 28.7 µM | > 100
5 | CC1=C(C(=O)CC(=O)C(=O)Nc2cc(C)ccc2C)Sc2ccccc2N1 | – | > 100 | – | > 100 | – | > 100 | > 100 | – | > 100 | – | > 100 | > 100 | > 100 | – | –
6 | O=C(CCC(=O)Nc1ccc(Cl)c(Cl)c1)CC(=O)c1ccc(Br)cc1 | – | > 100 | – | > 100 | – | > 100 | > 100 | – | > 100 | – | > 100 | > 100 | > 100 | – | –
7 | Cc1[nH]nc(C(F)(F)F)c1N=NN(C)C | – | – | – | – | – | – | – | – | – | – | – | – | – | – | > 100
8 | CCNC(=O)COc1ccc(Br)cc1Br | – | > 100 | – | > 100 | – | > 100 | > 100 | – | – | – | > 100 | > 100 | > 100 | – | –
9 | CC1/C=C/[C@@]2(C)CCC(C(C)(C)O)C2C(O)C[C@](C)(O)/C=C/C1 (stereo partly specified) | – | > 100 | – | > 100 | – | > 100 | – | – | > 100 | – | > 100 | > 100 | – | – | –
10 | CC(=O)N/N=C1\CC(C)(C)C2CCC1C2 (stereo unspecified) | – | > 100 | – | > 100 | – | – | > 100 | – | > 100 | – | – | > 100 | – | – | –
11 | C=C(CC(NC(=O)c1ccc(C(CC)Cc2cnc3nc(N)nc(N)c3n2)cc1)C(=O)O)C(=O)O (stereo unspecified) | – | > 100 | – | > 100 | – | > 100 | – | – | – | – | – | – | – | – | –
12 | CC1CCC2(NC1)OC1CC3C4CC=C5CC(O)CCC5(C)C4CCC3(C)C1C2C (stereo unspecified) | – | – | – | – | – | – | – | – | – | – | – | – | – | 31.1 µM and 12.2 µM | > 100
13 | COc1ccc(NC(=O)/C(=C/c2ccccc2)C(C)=O)cc1 | – | 24.9 | – | 44.8 | – | 28.7 | 29.9 | – | 30.6 | – | 28.2 | 30.7 | 31.2 | – | –
14 | COc1ccc(NC(=O)CC2SC(=Nc3ccccc3C)NC2=O)c([N+](=O)[O-])c1 (stereo unspecified) | – | > 100 | – | > 100 | – | > 100 | > 100 | – | > 100 | – | – | – | – | – | –
15 | CCC1CC2C(=O)N(c3ccccc3)C(=O)C2c2[nH]c3ccccc3c21 (stereo unspecified) | – | 70.4 | – | 75.1 | – | > 100 | 79.9 | – | 42 | – | 45.8 | 35.7 | 29.4 | – | –
16 | N/N=C1\C(=O)N(C2CCCCCC2)C(=O)C1C(=O)NC1CCCCCC1 (stereo unspecified) | – | 78.3 | – | 77.3 | – | > 100 | > 100 | – | – | – | 91.4 | – | – | – | –
17 | CCC(=O)c1c(NOC2OCC(OC(C)=O)C(OC(C)=O)C2OC(C)=O)nc(OC)n(C)c1=O (stereo unspecified) | – | > 100 | – | > 100 | – | > 100 | > 100 | – | > 100 | – | – | > 100 | – | – | –
18 | COc1ccc(OC)c(NC(=O)CCC/C(CC(=O)c2ccc(O)c(OC)c2)=N\Nc2nnc(C)n2N)c1 | – | > 100 | – | – | – | > 100 | > 100 | – | > 100 | – | > 100 | > 100 | – | – | –

Row | SMILES | GI50 (LXFL 529 NSCLC) [µM] | TGI (LXFL 529 NSCLC) [µM] | GI50 (SNB-78 CNS) [µM] | TGI (SNB-78 CNS) [µM] | GI50 (DLD-1 colon) [µM] | TGI (DLD-1 colon) [µM] | TGI (M19-MEL melanoma) [µM] | GI50 (XF 498 CNS) [µM] | TGI (XF 498 CNS) [µM] | GI50 (HOP-18 NSCLC) [µM] | TGI (HOP-18 NSCLC) [µM] | TGI (DMS 114 small cell lung) [µM] | TGI (RXF-631 renal) [µM] | GI50 (MDA-N) | TGI (MDA-N) [µM]
19 | NCCSSCCN | – | > 100 | – | > 100 | – | > 100 | > 100 | – | > 100 | – | > 100 | > 100 | > 100 | – | > 100
20 | O=C(O)c1ccc(CI)cc1 | – | – | – | – | – | – | – | – | – | – | – | – | – | – | 34.4
21 | COC12CCC(=O)C=C1c1ccccc1N2C(C)=O (stereo unspecified) | – | > 100 | – | > 100 | – | > 100 | > 100 | – | > 100 | – | > 100 | > 100 | – | – | –
22 | CC1=CC(=O)CC2(C)CC[C@@H]3C[C@]12OC3(C)C (stereo partly specified) | – | > 100 | – | > 100 | – | > 100 | > 100 | – | > 100 | – | > 100 | > 100 | – | – | –
23 | C=CCNc1nc2c(s1)C(=O)c1ccccc1C2=O | – | 24.2 | – | 72.9 | – | – | 3.22 | – | 34.8 | – | 23.1 | 3.27 | – | – | 3.28
24 | CC1=Nc2c(ccc3c2C(=O)c2ccccc2C3=O)NC(c2cccc3c2CCC3)C1 (stereo unspecified) | – | > 100 | – | > 100 | – | > 100 | > 72.6 | – | > 100 | – | > 100 | – | > 100 | – | –
25 | CCOC(=O)c1cc2cc3c4c(c2oc1=O)CCCN4CCC3 | – | – | – | – | – | – | – | – | – | – | – | – | – | – | > 100
26 | CC(C)(C)c1cc(C(O)(C(F)(F)F)C(F)(F)F)c2c(c1)C(C(F)(F)F)(C(F)(F)F)OC(C)(C(C)(C)C)N2 (stereo unspecified) | – | 14.1 | – | 99 | – | > 100 | 9.73 | – | 4.25 | – | – | 8.64 | – | – | –
27 | COC(=O)C1C(O)CCC2CN3CCc4c([nH]c5ccccc45)C3CC21 (stereo unspecified) | – | – | – | – | – | – | – | – | – | – | – | – | – | – | > 100
28 | N#Cc1ccccc1C(Cl)(Cl)c1cnccn1 | – | > 100 | – | > 100 | – | > 100 | > 100 | – | 33.8 | – | > 100 | 43 | – | – | –
29 | C/C=C(/I)CBr | – | 27.6 | – | 93.9 | – | 29.2 | 28.6 | – | 27 | – | – | 28.4 | 36.2 | – | –
30 | O=C1c2ccccc2-[n+]2ccc3c([nH]c4ccccc43)c21 | – | – | – | – | – | – | – | – | – | – | – | – | – | – | 0.318
31 | Cc1ccc(NC(=O)CCc2nc(N)nc(N)c2-c2ccccc2)cc1C | – | > 100 | – | > 100 | – | > 100 | > 100 | – | > 100 | – | > 100 | > 100 | > 100 | – | –
32 | O=c1/c(=C/c2ccccc2[N+](=O)[O-])sc2nc3ccccc3n12 | – | > 46.4 | – | > 46.4 | – | 37.3 | > 46.4 | – | > 59.3 | – | > 46.4 | 36.8 | > 46.4 | – | –
33 | CC1=C[C@H]2c3c([nH]c4ccccc34)C(c3c[nH]c4ccccc34)[C@H]2CC1 (stereo partly specified) | – | 15.5 | – | 13.2 | – | 19.1 | 22.9 | – | – | – | 24.1 | 20.5 | 14.1 | – | –
34 | COC(=O)/C=C(C)/C=C/C1OC(C)OCC1O (stereo unspecified) | – | > 100 | – | > 100 | – | > 100 | > 100 | – | – | – | – | > 100 | – | – | –
35 | CCOC(=O)C1=C(Nc2ccc(Cl)cc2Cl)OCC1=O | – | > 100 | – | > 100 | – | > 100 | > 100 | – | > 100 | – | – | – | > 100 | – | –
36 | CN(C)CCNc1ccc(CO)c2sc3ccc(O)cc3c(=O)c12 | – | 19 | – | > 45.6 | – | 18.6 | 15.9 | – | 19.9 | – | 29.6 | 16.5 | – | – | 3.7
